Reference: PMC10058748, “Triterpenoids of Three Apple Cultivars—Biosynthesis, Antioxidative and Anti-Inflammatory Properties, and Fate during Processing” (Molecules, 2023)
Values after ≈ are worked out from the molar mass of the structure shown.

Assays:
[1] = molecular target: T1, 5-lipoxygenase (5-LOX) (Homo sapiens, UniProt P09917); assay: 5-LOX inhibition (commercial kit, abcam ab284521); assay type: biochemical; settings: expressed per dry mass; 1% DMSO
T1 construct: purchased abcam ab284521
T1 sequence (P09917 1-674): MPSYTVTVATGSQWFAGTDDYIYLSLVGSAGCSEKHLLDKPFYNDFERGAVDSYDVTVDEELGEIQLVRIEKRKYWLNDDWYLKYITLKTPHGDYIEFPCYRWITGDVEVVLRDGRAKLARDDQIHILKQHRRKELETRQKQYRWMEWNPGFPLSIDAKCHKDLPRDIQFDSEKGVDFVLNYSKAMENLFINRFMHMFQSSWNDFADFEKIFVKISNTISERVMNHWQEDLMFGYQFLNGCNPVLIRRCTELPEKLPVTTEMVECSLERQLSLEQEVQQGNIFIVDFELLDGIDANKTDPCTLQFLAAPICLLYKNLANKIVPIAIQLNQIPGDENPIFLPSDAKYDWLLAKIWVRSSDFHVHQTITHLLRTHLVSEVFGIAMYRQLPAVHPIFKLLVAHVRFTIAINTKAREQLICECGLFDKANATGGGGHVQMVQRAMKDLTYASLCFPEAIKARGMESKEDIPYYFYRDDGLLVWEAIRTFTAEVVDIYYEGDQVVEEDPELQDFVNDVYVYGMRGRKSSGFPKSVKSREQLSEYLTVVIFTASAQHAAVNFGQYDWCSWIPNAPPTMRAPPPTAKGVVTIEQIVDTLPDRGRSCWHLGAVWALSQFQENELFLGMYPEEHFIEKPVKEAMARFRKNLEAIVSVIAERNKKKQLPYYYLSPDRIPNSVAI
Protocol: The selected peel extracts as well as the standards of triterpenic compounds were analyzed for their antioxidative and anti-inflammatory properties. Due to their hydrophobic character, the samples were dissolved in dimethyl sulfoxide (DMSO). The content of DMSO in the reaction media in all the tests described below was 1% for all the tested samples as well as the controls.
The anti-inflammatory activity was evaluated using commercial kits for three enzymes of biological activity: cyclooxygenases 1 and 2 (COX-1 and COX-2) and 5-lipoxygenase (5-LOX), according to the instructions of the producers. Inhibition of the cyclooxygenases was measured using kits from Cayman Chemicals (Ann Arbor, MI, USA; items 701070 and 701080, respectively), while 5-LOX inhibition was measured using a kit from abcam (Cambridge, UK; item no. ab284521).

[2] = molecular target: T2, cyclooxygenase 1 (COX-1) (Homo sapiens, UniProt P23219); assay: COX-1 inhibition (commercial kit, Cayman Chemicals item 701070); assay type: biochemical; settings: expressed per dry mass; 1% DMSO
T2 construct: purchased Cayman Chemicals 701070

[3] = molecular target: T3, cyclooxygenase 2 (COX-2) (Homo sapiens, UniProt P35354); assay: COX-2 inhibition (commercial kit, Cayman Chemicals item 701080); assay type: biochemical; settings: expressed per dry mass; 1% DMSO
T3 sequence (P35354 18-604): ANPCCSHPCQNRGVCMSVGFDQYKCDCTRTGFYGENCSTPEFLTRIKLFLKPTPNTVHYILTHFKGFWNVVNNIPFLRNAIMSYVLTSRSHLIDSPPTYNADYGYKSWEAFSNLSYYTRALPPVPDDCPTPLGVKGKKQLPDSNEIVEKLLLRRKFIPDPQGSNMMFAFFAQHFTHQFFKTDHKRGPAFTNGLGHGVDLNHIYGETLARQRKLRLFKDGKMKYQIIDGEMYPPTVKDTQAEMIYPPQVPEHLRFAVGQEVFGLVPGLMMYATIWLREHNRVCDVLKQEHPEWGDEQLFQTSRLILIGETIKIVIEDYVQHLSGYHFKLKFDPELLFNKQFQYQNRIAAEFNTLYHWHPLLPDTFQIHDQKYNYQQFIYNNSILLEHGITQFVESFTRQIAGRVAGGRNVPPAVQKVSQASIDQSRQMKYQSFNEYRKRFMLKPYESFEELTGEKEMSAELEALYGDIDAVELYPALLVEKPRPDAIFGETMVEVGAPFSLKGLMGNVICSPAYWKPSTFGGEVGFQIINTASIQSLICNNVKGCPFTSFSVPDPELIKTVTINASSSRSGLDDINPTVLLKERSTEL

[4] = heating; cited from earlier work
[5] = ABTS radical cation scavenging activity; settings: expressed per dry mass; 1% DMSO; 6 min incubation, 734 nm
Protocol: The scavenging activity against ABTS^•+ was measured with a protocol described by Re et al. [63]. […] Then, 25 µL samples were mixed with 2.5 mL of ABTS^•+ solution and incubated for 6 min. […] Trolox was chosen as a reference antioxidant.

[6] = DPPH radical scavenging activity; settings: expressed per dry mass; 1% DMSO; 30 min at room temperature, 517 nm
Protocol: A method described by Yen and Chen was used to determine the activity against DPPH^• [64]. Briefly, 0.1 mL samples were mixed with 2 mL of DPPH^• solution (1 mM) and incubated at room temperature for 30 min. […] Trolox was chosen as a reference antioxidant.

T2 sequence (P23219 24-599): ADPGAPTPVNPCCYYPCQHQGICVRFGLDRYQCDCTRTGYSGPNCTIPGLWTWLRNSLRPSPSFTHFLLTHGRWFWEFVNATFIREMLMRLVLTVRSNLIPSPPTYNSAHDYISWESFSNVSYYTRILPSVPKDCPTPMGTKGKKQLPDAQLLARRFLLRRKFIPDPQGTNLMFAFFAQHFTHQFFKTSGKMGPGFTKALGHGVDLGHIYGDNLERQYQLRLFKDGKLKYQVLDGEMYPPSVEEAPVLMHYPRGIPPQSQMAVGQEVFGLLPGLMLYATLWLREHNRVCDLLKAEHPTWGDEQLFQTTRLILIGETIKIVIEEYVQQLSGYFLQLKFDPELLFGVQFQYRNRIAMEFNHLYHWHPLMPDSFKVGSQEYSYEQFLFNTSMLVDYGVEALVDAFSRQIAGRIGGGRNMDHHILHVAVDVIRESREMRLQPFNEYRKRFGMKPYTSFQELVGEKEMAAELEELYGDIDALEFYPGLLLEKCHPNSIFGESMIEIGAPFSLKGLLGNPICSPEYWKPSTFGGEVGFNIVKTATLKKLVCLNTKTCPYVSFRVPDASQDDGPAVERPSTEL

| SMILES | IC50 [1] | IC50 [2] | IC50 [3] | temperature above which degradative processes occur [4] | IC50 ABTS^•+ scavenging [5] | IC50 DPPH^• scavenging [6] |
| --- | --- | --- | --- | --- | --- | --- |
| O=C(/C=C/c1ccc(O)c(O)c1)O[C@@H]1C[C@](O)(C(=O)O)C[C@@H](O)[C@H]1O [Chlorogenic Acid, chlorogenic acid] | > 14100 µM | 2960 µM | 1730 µM | – | – | – |
| CC1(C)CC[C@]2(C(=O)O)CC[C@]3(C)C(=CC[C@@H]4[C@@]5(C)CC[C@H](O)C(C)(C)[C@@H]5CC[C@]43C)[C@@H]2C1 [Oleanolic Acid, Oleanolic acid] | 1400 µM | – | – | above 200 °C | 155 ± 7 µg/mL (≈ 339 µM) | 96 ± 5 µg/mL (≈ 210 µM) |
| O=C(CCc1ccc(O)cc1)c1c(O)cc(O)cc1O[C@@H]1O[C@H](CO)[C@@H](O)[C@H](O)[C@H]1O [Phloridzin, phloridzin] | > 11500 µM | 2200 µM | 1480 µM | – | 34 ± 4 µg/mL (≈ 77.9 µM) | 23 ± 3 µg/mL (≈ 52.7 µM) |
| C[C@H]1[C@H](C)CC[C@]2(C(=O)O)CC[C@]3(C)C(=CC[C@@H]4[C@@]5(C)CC[C@H](O)C(C)(C)[C@@H]5CC[C@]43C)[C@H]12 [Ursolic Acid, Ursolic acid] | 1570 µM | 114 µM | 67.9 µM | – | – | – |
| CC[C@H](CC[C@@H](C)[C@H]1CC[C@H]2[C@@H]3CC=C4C[C@@H](O)CC[C@]4(C)[C@H]3CC[C@]12C)C(C)C [β-Sitosterol, β-sitosterol] | 4200 µM | – | 921 µM | – | – | – |
